Laboratory results reported in patent US12162843B2, “High-purity thermostable crystal form of substituted 3-isoxazolidinone compound, preparation method therefor and application thereof” (ZHEJIANG ZHUJI UNITED CHEMICALS CO., LTD., priority 2019, dated 2024).

Assay: Stability experiment of the orthorhombic crystal (PXRD before and after storage)
Format: physicochemical
Conditions: high-temperature (60±2° C.) oven, 90±5% humidity, 4500±5001 ux light intensity, 10 days, samples on 5th and 10th days
Protocol: A further object of the application is to investigate stability of the orthorhombic crystal of the 2-[(2,4-dichlorophenyl)methyl]-4,4-dimethyl-3-isoxazolidinone compound (Formula I). The orthorhombic crystal is stored in a high-temperature (60±2° C.) oven, in a 90±5% humidity condition, and under 4500±5001 ux light intensity for 10 days, respectively, during which samples are collected on the 5th and 10th days for a PXRD analysis.
A PXRD diffractometer (X′Pert PRO, PNAlytical, Netherlands) is employed to collect the following specific data: Cu anode=40 kV, 150 mA, 2θ scanning range=0°˜45°, scanning speed=8°/min, step size=0.02°, divergence slit (DS)=1°, anti-scattering slit=(SS) 1°, and receiving slit (RS)=0.15 mm.
The crystals of the 2-[(2,4-dichlorophenyl)methyl]-4,4-dimethyl-3-isoxazolidinone compound (Formula I) obtained in embodiments 3, 4, 5, and 6 are respectively placed in a high-temperature (60±2° C.) oven, in a 90±5% humidity condition, and under 4500±5001 ux light intensity for 10 days. Samples are collected on the 5th and 10th days for the PXRD analysis.

**Q.** With CC1(C)CON(Cc2ccc(Cl)cc2Cl)C1=O [orthorhombic crystal, 2-[(2,4-dichlorophenyl)methyl]-4,4-dimethyl-3-isoxazolidinone] as the compound, how does the “stability of the crystal form (PXRD before and after storage)” value read?
**A.** Its value is “stable crystal form under high temperature, humidity and light intensity conditions”.

**Q.** What about the “stability of the crystal form (PXRD before and after storage)” value (listed as orthorhombic crystals) of the same compound?
**A.** The value was “remain stable under high temperature, high humidity, and light intensity”.
